Reference: patent publication US5863950A, “HIV protease inhibitors” (Agouron Pharmaceuticals, Inc., priority 1994, dated 1999)
≈ marks a conversion by molar mass, not a printed value. Where two headings read alike, the source gives them in different places.

Tests used:
[1] = molecular target: T1, HIV-1 protease (Human immunodeficiency virus type 1 group M subtype B, UniProt P04585); experiment: biochemical; format: biochemical
T1 construct: purified HIV-1 protease
Protocol: 1. Proteolytic activity of purified HIV-1 protease was routinely measured using the chromogenic assay developed by Richards et al. (J. Biol. Chem. 265: 7733 (1990)). Synthetic peptide His-Lys-Ala-Arg-Val-Leu-Phe (pNO2)-Glu-Ala-Nle-Ser-NH2 (American Peptide Company) was used as the substrate.
2. The assay was carried out in 0.5M NaCl, 50 mM MES pH 5.6, 2% DMSO (dimethylsulfoxide) at 37° C. Cleavage of the scissile bond between leucine and paranitro-phenylalanine (Phe(pNO2)) was assayed by spectrophotometric monitoring of the decrease in absorbance at 305 nm. Initial velocity was determined as the rate of decline of absorbance during the first 100 seconds of reaction.
3. […] Between 15-25 concentrations of inhibitor were added and velocity of reaction was measured at each of the concentrations, as described above.
4. Inhibition constants were calculated using the method of Jackson et al. (Adv. in Enzyme Regulation 22: 187 (1984)).

[2] = tested on: HIV-1 (CEM cells); experiment: Anti-HIV MTT assay, inhibition of HIV-induced cell killing, CEM cells; format: cell-based, HIV-1 isolates IIIB and/or RF; conditions: Human immunodeficiency virus 1, CCRF-CEM, 144 h, CEM cell line (first position), 6 days, 37° C., read-out: Viral CEM
Source text: (§1) SRI has an established program for the primary antiviral analysis of compounds in microtiter assays which measure the ability of a selected compound to inhibit HIV-induced cell killing. This assay involves the conversion of the tetrazolium dye MTT to a colored formazan product by mitochondrial enzymes in metabolically active cells. This assay system is presently used at SRI to screen over 30,000 compounds per year. Briefly, the assay involves the infection of CEM or MT2 cells in round bottom 96-well plates. The compound of interest is added just prior to infection. Following 6 days of incubation at 37° C. the plates are stained with MTT. The results of the assay are quantitated spectrophotometrically on a Molecular Devices Vmax plate reader. The data is analyzed by linear regression utilizing an in-house software program to calculate antiviral activity. (IC25, IC50, IC95) and toxicity (TC25, TC50, TC95) as well as other values.
(§2) Primary antiviral assays are routinely performed in CEM or MT-2 cells.
(§3) Drugs will be solubilized in the appropriate vehicle such as distilled water or DMSO if necessary. Latex gloves, lab coats and masks are used during all phases of the handling process to prevent exposure to potentially harmful agents. The drug is prepared at the appropriate concentration and stored at -20° C. until used by the screening laboratory. The first dilution of each compound is made in a dilution tube with medium to yield a concentration two-fold that of the highest test concentration. Sterile titer tubes are then used to make serial one half-log dilutions of each compound. Following drug dilution, the diluted compound is added to the appropriate well of a 96-well microtiter plate. Up to 12 dilutions can be assayed conveniently in triplicate on a single plate with all appropriate controls including cell control, virus control, toxicity control, drug color control, medium control and plastic (background) control. When testing includes only six dilutions, two drugs can be assayed on a single microtiter plate. The drugs are added to the plate in a final volume of 100 microliters.
(§4) During the time the drug dilutions are prepared, cells are washed and counted. Viability is monitored by trypan blue dye exclusion and assays are not performed if the viability falls below 90%. Cells are maintained in an exponential growth phase and are split 1:2 on the day prior to assay to assure exponential growth rate.
(§5) For the primary screen, the cell lines utilized are CEM and MT-2. Unless otherwise indicated, the medium used is RPMI 1640 with 10% heat-inactivated fetal calf serum (FBS), glutamine and antibiotics.
(§6) Cells are propagated at 37° C. in an atmosphere of 5% CO2 in air. The virus employed for this work is HIV-1 isolates IIIB and/or RF, which are prepared by an acute infection process.
(§7) Briefly, virus-infected cells are pelleted on a daily basis beginning at three days post-infection until the virus has killed all of the cells in the culture. Reverse transcriptase activity and p24 ELISA are used to identify pools with the greatest amount of virus.
(§8) These 24-hour harvests are pooled, filtered and frozen at -90° C. Prior to use in the assay, the infectious pool of virus is titered on all available cell lines in order to determine the amount of virus required in the antiviral assay.
(§9) In general, pools produced by the acute infection method require the addition of one microliter of infectious virus per well resulting in the screening of drugs at a multiplicity of infection of 0.01. In this manner enough virus is prepared and frozen to complete over one thousand microtiter plates, allowing the testing of up to two thousand compounds from a single stock of infectious virus. The use of a single stock of virus for a long period of testing has very favorable effects on the repeatability of the assay systems.
(§10) Virus infection of the CEM and MT-2 cells for the antiviral assay is carried out in a bulk infection process. […]

[3] = tested on: HIV-1 (MT-2 cells); experiment: Anti-HIV MTT assay, inhibition of HIV-induced cell killing, MT-2 cells; format: cell-based, HIV-1 isolates IIIB and/or RF; conditions: Human immunodeficiency virus 1, MT2, 144 h, read-out: Viral MT-2
Source text: as §1, §2, §3, §4, §5, §6, §7, §8, §9, §10

[4] = 0.5M NaCl, 50 mM MES pH 5.6, 2% DMSO, 37° C., 200 μM substrate
[5] = MT-2 cells (second position), 6 days, 37° C., MTT

Row | SMILES | IC50 [1, 4] [nM] | Ki [1, 4] [nM] | IC50 [2] [µg/mL] | IC50 [3, 5] [µg/mL] | IC50 [3] [µg/mL] | Ki [1] [nM]
1 | CC(C)(C)NC(=O)c1cc(Sc2ccccc2)ccc1CCC(O)Cc1ccccc1C(=O)N(CCO)C(C)(C)C (stereo not shown) [Example 73] | 680 | 717 | > 10 | > 10 |  | 
2 | CC(C)(C)N(CCO)C(=O)c1ccccc1CCC(O)Cc1ccccc1C(=O)N(CCO)C(C)(C)c1ccncc1 (stereo not shown) [Example 77] | 1230 | 1010 | 7.57 (≈ 13.1 µM) | 16.4 (≈ 28.5 µM) |  | 
3 | CCC1(N(CCO)C(=O)c2ccccc2CCC(O)Cc2ccccc2C(=O)N(CCO)C2(c3ccccc3)CCCC2)CCCC1 (stereo not shown) [Example 93] | 104 | 2.3 | 1.35 (≈ 2.11 µM) | 1.67 (≈ 2.61 µM) |  | 
4 | CCCC(CC)(CC)N(CCO)C(=O)c1cc(C)ccc1CC(O)CCc1ccccc1C(=O)N(CCO)C1(CC)CCCC1 (stereo not shown) [Example 109] | 59 | 13.6 | 0.79 (≈ 1.27 µM) |  | 0.59 (≈ 0.947 µM) | 
5 | CCC1(N(CCO)C(=O)c2ccccc2CCC(O)Cc2ccccc2C(=O)N(CCO)C(C)(C)c2ccccc2)CCCC1 (stereo not shown) [Example 82] | 104 | 17 | 0.75 (≈ 1.22 µM) | 0.64 (≈ 1.04 µM) |  | 
6 | CC(C)(C)N(CCO)C(=O)c1ccccc1CCC(O)Cc1ccccc1C(=O)N(CCO)C(C)(C)c1ccc2ccccc2c1 (stereo not shown) [Example 66] | 250 | 145 | 4.53 (≈ 7.25 µM) | 12.7 (≈ 20.3 µM) |  | 
7 | CC(C)(C)N(CCO)C(=O)c1ccccc1CCC(O)Cc1ccccc1C(=O)N(CCO)C12CCCCC1CCC2 (stereo not shown) [Example 81] | 230 | 64 | 4.39 (≈ 7.58 µM) | 5.58 (≈ 9.64 µM) |  | 
8 | CCC1(N(CCO)C(=O)c2ccccc2CCC(O)Cc2ccc(C)cc2C(=O)N(CCO)C2(c3ccccc3)CCCC2)CCCC1 (stereo not shown) [Example 94] | 141 | 0.55 | 0.52 (≈ 0.794 µM) | 1.47 (≈ 2.24 µM) |  | 
9 | Cc1ccc(CC(O)CCc2ccccc2C(=O)N(CCO)C(C)(C)c2ccccc2)c(C(=O)N(CCO)C(C)(C)c2ccccc2)c1 (stereo not shown) [Example 80] | 89 | 12 | 0.53 (≈ 0.814 µM) | 0.68 (≈ 1.04 µM) |  | 
10 | CCC1(N(CCO)C(=O)c2ccccc2CCC(O)Cc2ccc(C)cc2C(=O)N(CCO)C(C)(C)c2ccc(OCCN3CCOCC3)cc2)CCCC1 (stereo not shown) [Example 108] | 108 | 9.8 | 0.64 (≈ 0.844 µM) | 0.56 (≈ 0.739 µM) |  | 
11 | CC(C)(C)NC(=O)c1c(CCC(O)Cc2ccccc2C(=O)N(Cc2ncc[nH]2)C(C)(C)C)ccc2ccccc12 (stereo not shown) [Example 12] | 820 | 790 | 29.5 (≈ 53.2 µM) |  |  | 
12 | CCC1(N(CCO)C(=O)c2ccccc2CCC(O)Cc2ccc(C)cc2C(=O)N(CCO)C(C)(C)c2ccc(OCc3cccnc3)cc2)CCCC1 (stereo not shown) [Example 98] | 103 | 2 | 0.48 (≈ 0.652 µM) | 1.94 (≈ 2.64 µM) |  | 
13 | CC(C)(C)N(CCO)C(=O)c1ccccc1CCC(O)Cc1ccccc1C(=O)N(CCOc1ccncc1)C(C)(C)c1ccccc1 (stereo not shown) [Example 83] | 2500 | 735 | > 100 | > 100 |  | 
14 | CCC1(N(CC(CO)CO)C(=O)c2ccccc2CCC(O)Cc2ccc(C)cc2C(=O)N(CC(CO)CO)C(C)(C)c2ccccc2)CCCC1 (stereo not shown) [Example 107] | 92 | 32 | 1.44 (≈ 2.01 µM) | 1.34 (≈ 1.87 µM) |  | 
15 | CCC1(N(CCO)C(=O)c2ccccc2CCC(O)Cc2ccccc2C(=O)N(CCO)C(CC)(CC)c2ccccc2)CCCC1 (stereo not shown) [Example 95] | 90 | 1.5 | 0.6 (≈ 0.933 µM) | 1.46 (≈ 2.27 µM) |  | 
16 | CCC1(N(CCO)C(=O)c2ccccc2CCC(O)Cc2ccc(C)cc2C(=O)N(CC(CO)CO)C(C)(C)c2ccccc2)CCCC1 (stereo not shown) [Example 103] | 106 |  | 0.64 (≈ 0.951 µM) | 1.15 (≈ 1.71 µM) |  | 10
17 | CCC1(N(CCO)C(=O)c2ccccc2CC[C@@H](O)Cc2ccc(C)cc2C(=O)N(CCO)C(C)(C)c2ccccc2)CCCC1 [Example 112] |  |  | 0.54 (≈ 0.859 µM) | 1.47 (≈ 2.34 µM) |  | 
18 | CCC1(N(CCO)C(=O)c2ccccc2CCC(O)Cc2ccc(C)cc2C(=O)N(CC2COC(C)(C)OC2)C(C)(C)c2ccccc2)CCCC1 (stereo not shown) [Example 102] | 133 | 2.3 | 0.42 (≈ 0.589 µM) | 0.47 (≈ 0.659 µM) |  | 
19 | CCc1ccc(CC(O)CCc2ccccc2C(=O)N(CCO)C(C)(C)c2ccccc2)c(C(=O)N(CCO)C(C)(C)c2ccccc2)c1 (stereo not shown) [Example 89] | 144 | 17 | 1 (≈ 1.5 µM) | 1.79 (≈ 2.69 µM) |  | 
20 | CC(C)(C)N(CCO)C(=O)c1ccccc1CCC(=O)C(F)(F)c1ccccc1C(=O)N(CCO)C(C)(C)c1ccccc1 [Example 78] | 420 | 320 | > 10 | 6.64 (≈ 10.9 µM) |  | 
21 | CCC1(N(CCO)C(=O)c2ccccc2CCC(O)Cc2ccc(C)cc2C(=O)N(CCO)C(C)(C)c2ccc(OCc3ccc[n+]([O-])c3)cc2)CCCC1 (stereo not shown) [Example 111] | 52 | 8 | 1.03 (≈ 1.37 µM) | 1.81 (≈ 2.41 µM) |  | 
22 | CC(C)(C)N(CCO)C(=O)c1ccccc1CCC(O)Cc1ccccc1C(=O)N(CCO)C1(C)CCCC1 (stereo not shown) [Example 5] | 950 | 840 | 17.4 (≈ 32.3 µM) | 32 (≈ 59.4 µM) |  | 
23 | Cc1ccc(CCC(O)Cc2ccccc2C(=O)N(CCOCc2ccccc2)C(C)(C)c2ccccc2)c(C(=O)N(CCO)C(C)(C)C)c1 (stereo not shown) [Example 84] | 351 | 315 | > 100 | > 100 |  | 
24 | CCC1(N(CCO)C(=O)c2ccccc2CCC(O)Cc2ccc(C)cc2C(=O)N(CCO)C(C)(C)c2ccccc2)CCCC1 (stereo not shown) [Example 18] |  |  | 0.49 (≈ 0.779 µM) | 0.53 (≈ 0.843 µM) |  | 
